Measurements taken from patent EP4670723A1, “PI[…] USE IN THE TREATMENT OF OSTE[…] NON-HUMAN MAMMALS” (Vetbiolix, priority 2024, dated 2025).
Where two headings read alike, the source gives them in different places.

Experiments:
[1] = tested on: monoidoacetate (MIA) experimental rat models; settings: cited from earlier work
[2] = tested on: patients with osteoarthritis of the knee; settings: 1000 µg (14.5 µg/kg) twice daily orally for 12 weeks; trial discontinued; cited from earlier work
human patients = settings: cited from earlier work; for Activity: Human
[3] = tested on: dogs with osteoarthritis (OA); assay: multicentric, non-comparative, randomized proof of concept study, 90 days oral treatment of dogs with osteoarthritis; assay type: in vivo, dog; settings: for Activity: Dog
Method: This was a multicentric, non-comparative, randomized proof of concept study in which 15 dogs with osteoarthritis (OA) were treated with piclidenosone (VBX1000) for 90 days.
[…] Two intermediate visits were included for clinical examination and for calculating OA scores.
The primary objective of this study was to assess the efficacy of piclidenosone to reduce OA symptoms severity after 90 days of treatment. For that purpose, OA symptoms and motility were scored by the owner using Liverpool Osteoarthritis in Dogs (LOAD) questionnaire at Day-0, Day-30, Day-60 and Day-90. […]
• Inclusion criteria • ∘ The owner approved and signed the informed consent form prior to the participation of his/her dog in the study; • ∘ Dog older than 18 months; • ∘ Dog with a Body Condition score lower than 8 (on a 9 point-scale); • ∘ Dog with a symptomatic unifocal or multifocal osteoarthritis, characterized by the presence of osteophyte on at least one site on radiographic views; • ∘ LOAD mobility total score of ≥ 11 at visit V2 (Day 0). • Exclusion criteria • ∘ Animals intended for breeding or known to be pregnant or lactating; • ∘ Dog with severe OA which requires concomitant treatment; • ∘ Presence of complete cranial cruciate ligament rupture; • ∘ Breeds at risk of MDR1 gene mutation (MDR1 genetic test required before screening of a dog from known affected breed: Collie, Border Collie, Australian and English Shepherd, German Shepherd, Long-Haired Whippet, Shetland Sheepdog); • ∘ History of orthopaedic surgery including complete cranial cruciate ligament rupture surgically treated with Tibial Tuberosity Advancement (TTA) or Tibial Plateau Leveling Osteotomy (TPLO) or elbow debridement within 3 months prior to inclusion; • ∘ Presence of musculoskeletal lesions (e.g., glycogenosis, primary muscular dystrophy) or untreated neoplasia prior to inclusion; • ∘ Presence of concurrent systemic disease such as neurologic, hepatic, renal or cardiac disease; • ∘ Dog under physical therapy (including acupuncture) for orthopaedic indication unless a 1-week wash-out period is applied prior to visit V1 (between D-21 and D-14); • ∘ Dog treated with methotrexate; • ∘ Dog treated with nonsteroidal anti-inflammatory drugs unless a 2-weeks wash-out period is applied prior to visit V1 (between D-21 and D-14); • ∘ Dog that received mavacoxib or enflicoxib within 3 months prior to visit V1 (between D-21 and D-14); • ∘ Dog treated with short-acting corticosteroids (i.e., hydrocortisone) unless a 2-weeks wash-out period is applied prior to visit V1 (between D-21 and D-14); • ∘ Dog treated with intermediate-acting corticosteroids (i.e., prednisone, prednisolone, methylprednisolone) unless a 4-weeks wash-out period is applied prior to visit V1 (between D-21 and D-14); • ∘ Dog treated with long-acting corticosteroids (i.e., dexamethasone) unless a 12-weeks wash-out period is applied prior to visit V1 (between D-21 and D-14); • ∘ Dog treated with any intra-articular injection in the joint under study within 2 months prior to visit V1 (between D-21 and D-14); • ∘ Dog treated with a subcutaneous injection of bedinvetmab unless a 4-week wash-out periods is applied prior to visit V1 (between D-21 and D-14); • ∘ Dog treated with OA modifying diet and/or food supplements (i.e., glycosaminoglycans, glucosamine and chondroitin sulphate or other) unless its administration has been regular during the month preceding visit V1 (between D-21 and D-14) and will be continued during the study duration; • ∘ Dog unable to walk on a leash. […]

[4] = tested on: dogs with osteoarthritis (OA); assay: as above; assay type: in vivo, dog
[5] = oral, 100 µg/kg body weight twice a day
[6] = 100 µg/kg bid, 90 days vs baseline

## CNC(=O)[C@H]1O[C@@H](n2cnc3c(NCc4cccc(I)c4)ncnc32)[C@H](O)[C@@H]1O [piclidenoson, 1-Deoxy-1-[6-[[(3-iodophenyl)methyl]amino]-9H-purin-9-yl]-N-methyl-β-D-ribofuranuronamide]
[1]; Rat, Bid Dose 100 µg/kg
  Activity: Yes
[1]; [5]
  NF-kappaB signaling pathway: deregulated
  apoptosis of inflammatory cells: induced apoptosis
  cartilage protection: cartilage protective agent
[2]
  efficacy: lack of efficacy
Human patients; Bid Dose 2000 µg (29 µg/kg)
  Activity: Yes
Human patients; Bid Dose 4000 µg (57 µg/kg)
  Activity: Yes
Human patients; from clinical Phase 2 trials, assuming body weight of 70 kg
  Active Dose in Human: 0.029 mg/kg
[3]; 100 µg/kg bid group, 90-day treatment period
  pain score (Visual Analog Score or VAS): not significantly improved
[3]; [6]
  proportion of patient with low NRS1 (lameness score): non-significant increase
[3]; 100 µg/kg twice a day orally for 90 days
  evidence for efficacy in the treatment of osteoarthritis in dogs: do not provide evidence for efficacy
[3]; 500 µg/kg bid group as compared to 100 µg/kg bid, decrease in LOAD score ≥4, Day-90 vs inclusion
  proportion of patient experiencing clinically meaningful improvement of LOAD score: higher
[3]; 500 µg/kg bid group, statistical significance from Day-60 up to end of treatment
  pain score (Visual Analog Score or VAS): significant decrease
[3]; 500 µg/kg bid, after 90 days
  change in LOAD score vs that obtained after ligament surgery in dogs with ligament rupture: comparable
[3]; Bid Dose 100 µg/kg
  Activity: No
[3]; Bid Dose 500 µg/kg
  Activity: Yes
[3]; end of treatment period, 500 µg/kg bid group as compared to 100 µg/kg bid group
  proportion of patients showing VAS improvement (Δ≤-1): superior
[3]; group 1, 100 µg/kg bid, observed at Day-30, totally disappeared at Day-60 and Day-90
  temporal evolution of mean LOAD score: transient decrease
[3]; group 2, 500 µg/kg bid, statistical significance from Day-60 to end of treatment
  temporal evolution of mean LOAD score: time-dependent decrease
[3]; proof-of-concept trial in dog with osteoarthritis, bid
  Active Dose in dog: 0.5 mg/kg
[3]; repeated oral administration at dose ≥ 500 µg/kg bid
  clinical symptoms of osteoarthritis in dog: improves clinical symptoms
[3]; throughout the study, 100 and 500 µg/kg bid for 90 days
  tolerance: well tolerated with no treatment related SAE and no death
[4]; [6]
  proportion of patient with low NRS2 (pain score): non-significant increase
[4]; 500 µg/kg bid oral, Day-90, N=9, baseline 22.9±7.2 at Day-0, p<0.01, primary endpoint met
  LOAD score: 14.9±10.6
[4]; 500 µg/kg bid, 90 days vs baseline, p<0.05 Fisher exact test
  proportion of patients with low scores, NRS2 (pain score): reached statistical significance
[4]; 500 µg/kg bid, 90 days vs baseline, statistical significance
  proportion of patients with low scores, NRS1 (lameness score): not for NRS1
